Data published in patent US20080262080A1, “Allergy Suppressive Agent” (KYUSHU UNIVERSITY, NATIONAL UNIVERSITY CORPORATION, priority 2004, published 2008).

Test system: high-affinity IgE receptor (FcεRI)
Experiment: FcεRI expression amount on the cell surface of KU812 cells by flow cytometry
Type: cell-based, human
Conditions: 24 hours
Protocol: By using antihuman FcRI antibody (CRA1), the FcεRI expression amount on the surface of human basophil-like cell line KU812 cells was analyzed by flow cytometry. Cells having been incubated by adding DMSO alone were compared with cells having been incubated by adding chrysin. The ratio of overexpression of FcεRI is indicated in percentage. As a basal medium for incubating cells, use was made of RPMI 1640 (Nissui, Japan), to which 100 U/mL of penicillin (Meiji Pharmaceutical Company, Tokyo, Japan), […] of streptomycin (Meiji Pharmaceutical Company, Tokyo, Japan), 12.5 mM of MaHCO3 (Wako Pure Chemical Industries, Osaka, Japan) and 10 mM of HEPES Wako Pure Chemical Industries) had been added. Fetal bovine serum (FBS) purchased form Bio Source International was added to the basal medium to give a concentration of 5 to 10%. Human basophil-like cell line KU812 employed in this experiment was assigned by Japan Collection of Research Bioresources (JCRB) and subcultured and maintained in RPMI 1640 medium comprising 5 to 10% of FBS at 37° C. in 5% CO2 gas under humidification. KU812 cells were incubated in RPMI 1640 medium, to which chrysin dissolved in DMSO had been added, for 0 to 24 hours. A system wherein the cells were incubated in the medium comprising DMSO alone was used as a control. After incubating, the cells were collected and incubated in 5% FBS-PBS, to which 10 μg/mL of antihuman FcεRI α chain mouse monoclonal antibody CRA-1 (Kyokuto Pharmaceutical) had been added, at 4° C. for 40 to 60 min. As a negative control, 10 μg/mL of mouse control IgG2b antibody (DAKO) was used. Then, the cells were washed with ice-cooled PBS once and incubated in 5% FBS-PBS, to which 10 μg/mL of antimouse IgG2b FITC-labeled antibody (Protos Immunoresearch) had been added, at 4° C. for 40 to 60 min. After incubating, the cells were washed with PBS and then resuspended in PBS. The cell suspension thus obtained was analyzed by flow cytometry. In the flow cytometry analysis, FACS Calibur (Becton Sickinson, Sunnyvale, Calif.) was employed. The secondary antibody reaction and the subsequent procedures were conducted in the dark and the cells were preserved on ice while conducting the analysis. KU812 cells (5×10^5 cells/mL) was incubated in 5% bovine fetal serum comprising RPMI 1640 medium, to which chrysin (0, 1, 5 and 10 μM) and apigenin (purchased from Aldrich Chem. Co., St. Louis, Mo.; 0, 1, 5 and 10 μM) had been added, for 24 hours. After incubating, the FcεRI expression level on the cell surface was measured by flow cytometry (experimental procedure: see [0047]).

Structure (SMILES): O=c1cc(-c2ccc(O)cc2)oc2cc(O)cc(O)c12 [Apigenin]
- FcεRI expression suppressive rate (%) (single agent 1 μM): 5.0%
- FcεRI expression suppressive rate (%) (single agent 5 μM): 17.1%
- FcεRI expression suppressive rate (%) (single agent 10 μM): 36.1%
